Data published in ChEMBL document CHEMBL1201862, “PubChem BioAssay data set” (2004).
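96-well plates; 48 h exposure; 5 concentrations. Endpoints by linear interpolation between flanking doses. Not reached: highest tested concentration assigned. The concentration for 50% growth inhibition is given as GI50.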 Active and inactive are the calls of the source. No stated cut-off is given here; in the data, active = GI50 up to about 1.1 µM and inactive = higher.

Tests used:
Test in all cases: NCI anticancer screen, dose series, 48 h
HCT-15 = system: HCT-15
SNB-78 = system: SNB-78
SF-295 = system: SF-295
NCI-H522 = system: NCI-H522
UO-31 = system: UO-31
HOP-62 = system: HOP-62
KM12 = system: KM12
ACHN = system: ACHN
RPMI-8226 = system: RPMI-8226
K562 = system: K562
SK-MEL-5 = system: SK-MEL-5
U-251 = system: U-251
CAKI-1 = system: CAKI-1
HCT-116 = system: HCT-116
TK-10 = system: TK-10
MDA-MB-435 = system: MDA-MB-435
SR = system: SR
T47D = system: T47D
MDA-MB-231 = system: MDA-MB-231
PC-3 = system: PC-3

SMILES | GI50 (HCT-15) [µM] | GI50 (SNB-78) | GI50 (SF-295) | GI50 (NCI-H522) | GI50 (UO-31) | GI50 (HOP-62) | GI50 (KM12) | GI50 (ACHN) | GI50 (RPMI-8226) | GI50 (K562) | GI50 (SK-MEL-5) | GI50 (U-251) | GI50 (CAKI-1) | GI50 (HCT-116) | GI50 (TK-10) | GI50 (MDA-MB-435) | GI50 (SR) | GI50 (T47D) | GI50 (MDA-MB-231) | GI50 (PC-3)
Cc1cc(NS(=O)(=O)c2ccc(NC(=O)c3cccc4c(Nc5ccc(S(=O)(=O)Nc6cc(C)on6)cc5)c5ccccc5nc34)cc2)no1 | > 100 | 35.1 µM (inactive) | > 100 µM (inactive) | 20 µM (inactive) | 38.7 µM (inactive) | 47.8 µM (inactive) | > 100 µM (inactive) | > 100 µM (inactive) | 64.4 µM (inactive) | 36.6 µM (inactive) | 69.2 µM (inactive) | 30.5 µM (inactive) | 70.1 µM (inactive) | – | – | – | – | – | – | –
O=C(Nc1ccc(Cl)c(Cl)c1)C(=O)C(C(=O)c1ccccc1-c1ccccc1)C1OC(=O)c2ccccc21 (configuration not stated) | – | 10.4 µM (inactive) | 17.1 µM (inactive) | 6.56 µM (inactive) | 15.6 µM (inactive) | 13.1 µM (inactive) | 14.7 µM (inactive) | 31.3 µM (inactive) | 8.24 µM (inactive) | 21.5 µM (inactive) | 15.1 µM (inactive) | 9.1 µM (inactive) | – | 10.5 µM (inactive) | 23.6 µM (inactive) | – | – | – | – | –
CCN(CC)CCN1C(=O)C(=O)N(c2cccc3ccccc23)C1=O | > 10 | – | > 10 µM (inactive) | > 10 µM (inactive) | > 10 µM (inactive) | > 10 µM (inactive) | > 10 µM (inactive) | > 10 µM (inactive) | > 10 µM (inactive) | > 10 µM (inactive) | > 10 µM (inactive) | > 10 µM (inactive) | > 10 µM (inactive) | > 10 µM (inactive) | > 10 µM (inactive) | > 10 µM (inactive) | > 10 µM (inactive) | > 10 µM (inactive) | > 10 µM (inactive) | > 10 µM (inactive)
C=C1CN(Cc2ccccc2)[C@@H]2CCCCC[C@H](C#N)[C@H]12 | > 100 | – | > 21.2 µM (inactive) | 65.8 µM (inactive) | > 63.4 µM (inactive) | > 69.2 µM (inactive) | > 100 µM (inactive) | > 100 µM (inactive) | 22.5 µM (inactive) | 47.2 µM (inactive) | > 100 µM (inactive) | > 94 µM (inactive) | > 100 µM (inactive) | > 72.4 µM (inactive) | > 100 µM (inactive) | > 76 µM (inactive) | > 47.8 µM (inactive) | > 100 µM (inactive) | > 100 µM (inactive) | > 74.1 µM (inactive)
Clc1ccc(NCc2nnc(CCCCCCCCc3nnc(CNc4ccc(Cl)cc4)o3)o2)cc1 | > 100 | – | > 100 µM (inactive) | > 100 µM (inactive) | > 100 µM (inactive) | > 100 µM (inactive) | > 100 µM (inactive) | > 100 µM (inactive) | > 100 µM (inactive) | > 100 µM (inactive) | > 100 µM (inactive) | > 100 µM (inactive) | > 100 µM (inactive) | > 100 µM (inactive) | > 100 µM (inactive) | > 100 µM (inactive) | > 100 µM (inactive) | > 100 µM (inactive) | > 100 µM (inactive) | > 100 µM (inactive)
Cc1ccccc1CN1CC=c2ccccc2=N1 | > 100 | > 100 µM (inactive) | > 100 µM (inactive) | – | 50.1 µM (inactive) | > 100 µM (inactive) | > 100 µM (inactive) | > 100 µM (inactive) | > 100 µM (inactive) | > 100 µM (inactive) | 97.9 µM (inactive) | > 100 µM (inactive) | > 100 µM (inactive) | > 10 µM (inactive) | > 100 µM (inactive) | – | – | – | – | –
CCOC(=O)/C=C(/C)Nc1nc2c(c(C(=O)OC)c1C#N)CCCC2 | > 100 | – | > 100 µM (inactive) | > 100 µM (inactive) | > 100 µM (inactive) | > 100 µM (inactive) | > 100 µM (inactive) | > 100 µM (inactive) | > 100 µM (inactive) | > 100 µM (inactive) | > 100 µM (inactive) | > 100 µM (inactive) | > 100 µM (inactive) | > 100 µM (inactive) | > 100 µM (inactive) | > 100 µM (inactive) | > 100 µM (inactive) | > 100 µM (inactive) | > 100 µM (inactive) | > 100 µM (inactive)
O=C(OC(=O)n1ccc2ccccc21)n1ccc2ccccc21 | > 100 | > 100 µM (inactive) | > 92.3 µM (inactive) | – | 75.7 µM (inactive) | > 100 µM (inactive) | > 100 µM (inactive) | – | > 100 µM (inactive) | > 100 µM (inactive) | > 100 µM (inactive) | > 100 µM (inactive) | > 96.4 µM (inactive) | > 100 µM (inactive) | – | – | – | – | – | –
COc1c2c(c3c(c1CCC(=O)O)OC(C)(C)C=C3)OC(C)(C)C=C2 | > 100 | – | > 100 µM (inactive) | 55.1 µM (inactive) | > 100 µM (inactive) | > 100 µM (inactive) | > 100 µM (inactive) | > 100 µM (inactive) | 48.4 µM (inactive) | 55.8 µM (inactive) | 65.2 µM (inactive) | > 100 µM (inactive) | > 100 µM (inactive) | 94.8 µM (inactive) | > 100 µM (inactive) | 28.9 µM (inactive) | > 100 µM (inactive) | > 100 µM (inactive) | > 100 µM (inactive) | > 100 µM (inactive)
